# Tests used:
# Hepatocyte [1] = assay: Induction of apoptosis in human hepatocytes assessed as caspase 3/7 activation by caspase-Glo 3/7 assay; assay type: cell-based
# Hepatocyte [2] = assay: Cytotoxicity against human hepatocytes assessed as reduction in cell viability after 4 hrs by LDH release assay; assay type: cell-based
# Hepatocyte [3] = assay: Cytotoxicity against human hepatocytes assessed as reduction in cell viability after 24 hrs by ATP detection based assay
# Hepatocyte [4] = assay: Cytotoxicity against human hepatocytes assessed as reduction in cell viability after 4 hrs by ATP detection based assay
# Hepatocyte [5] = assay: Cytotoxicity against human hepatocytes assessed as reduction in cell viability after 24 hrs by LDH release assay; assay type: cell-based
# Hepatocyte [6] = assay: Cytotoxicity against human hepatocytes assessed as loss of nuclei after 24 hrs at 50 to 100 uM; assay type: cell-based
# CYP3A4 [7] = target: CYP3A4 (Homo sapiens, UniProt P08684); assay: Time dependent inhibition of CYP3A4 activity in human hepatocytes after 30 mins by liquid chromatography/tandem mass spectroscopy; assay type: ADME, cell-based, Hepatocyte
# CYP2C19 = CYP2C19 (Homo sapiens, UniProt P33261); assay: Time dependent inhibition of CYP2C19 activity in human hepatocytes after 30 mins by liquid chromatography/tandem mass spectroscopy; assay type: ADME, cell-based, Hepatocyte
# Cytochrome P450 2C9 = Cytochrome P450 2C9 (Homo sapiens, UniProt P11712); assay: Inhibition of CYP2C9 activity in human hepatocytes after 30 mins by liquid chromatography/tandem mass spectroscopy; assay type: ADME, cell-based, Hepatocyte
# CYP2D6 = CYP2D6 (Homo sapiens, UniProt P10635); assay: Time dependent inhibition of CYP2D6 activity in human hepatocytes after 30 mins by liquid chromatography/tandem mass spectroscopy; assay type: ADME, cell-based, Hepatocyte
# CYP2E1 = CYP2E1 (Homo sapiens, UniProt P05181); assay: Time dependent inhibition of CYP2E1 activity in human hepatocytes after 30 mins by liquid chromatography/tandem mass spectroscopy; assay type: ADME, cell-based, Hepatocyte
# [8] = Cytotoxicity against human hepatocytes assessed as cell viability after 24 hrs at 100 uM by ATP detection based assay; set-up: species or system Hepatocyte; details: read-out: Activity
# SULT2A1 = assay: Induction of SULT2A1 mRNA expression in human hepatocytes at 10 uM after 48 hrs relative to untreated control; assay type: cell-based, Hepatocyte; details: read-out: FC
# Hepatocyte [9] = assay: Cytotoxicity against human hepatocytes assessed as cytoplasm granulation with vacuoles after 24 hrs at 50 to 100 uM; assay type: cell-based
# CYP3A4 [10] = assay: Induction of CYP3A4 mRNA expression in human hepatocytes at 10 uM after 48 hrs relative to untreated control; assay type: ADME, cell-based, Hepatocyte; details: read-out: FC
# Cytochrome P450 3A4 = Cytochrome P450 3A4 (Homo sapiens, UniProt P08684); assay: Inhibition of CYP3A4 activity in human hepatocytes after 30 mins by liquid chromatography/tandem mass spectroscopy; assay type: ADME, cell-based, Hepatocyte
# CYP1A2 = target: T1, CYP1A2 (Homo sapiens, UniProt P05177); assay: Time dependent inhibition of CYP1A2 activity in human hepatocytes after 30 mins by liquid chromatography/tandem mass spectroscopy; assay type: ADME, cell-based, Hepatocyte
# T1 sequence (P05177 whole entry): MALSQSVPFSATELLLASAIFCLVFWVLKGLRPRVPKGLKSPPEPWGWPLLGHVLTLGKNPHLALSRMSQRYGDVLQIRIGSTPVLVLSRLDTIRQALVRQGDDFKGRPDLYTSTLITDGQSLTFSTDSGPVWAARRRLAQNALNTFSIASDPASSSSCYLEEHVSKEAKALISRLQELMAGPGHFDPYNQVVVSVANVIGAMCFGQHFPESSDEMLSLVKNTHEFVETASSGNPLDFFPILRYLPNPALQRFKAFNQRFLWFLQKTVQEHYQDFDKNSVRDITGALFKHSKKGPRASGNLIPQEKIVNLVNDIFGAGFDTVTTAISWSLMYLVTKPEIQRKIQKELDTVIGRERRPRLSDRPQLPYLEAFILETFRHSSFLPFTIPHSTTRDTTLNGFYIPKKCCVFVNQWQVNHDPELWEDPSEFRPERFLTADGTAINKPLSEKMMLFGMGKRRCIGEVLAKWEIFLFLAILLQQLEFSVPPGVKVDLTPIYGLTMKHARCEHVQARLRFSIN
# CYP2C9 = CYP2C9 (Homo sapiens, UniProt P11712); assay: Time dependent inhibition of CYP2C9 activity in human hepatocytes after 30 mins by liquid chromatography/tandem mass spectroscopy; assay type: ADME, cell-based, Hepatocyte
# CYP2B6 [11] = assay: Induction of CYP2B6 mRNA expression in human hepatocytes at 10 uM after 48 hrs relative to untreated control; assay type: ADME, cell-based, Hepatocyte; details: read-out: FC
# CYP2B6 [12] = target: T2, CYP2B6 (Homo sapiens, UniProt P20813); assay: Time dependent inhibition of CYP2B6 activity in human hepatocytes after 30 mins by liquid chromatography/tandem mass spectroscopy; assay type: ADME, cell-based, Hepatocyte
# T2 sequence (P20813 whole entry): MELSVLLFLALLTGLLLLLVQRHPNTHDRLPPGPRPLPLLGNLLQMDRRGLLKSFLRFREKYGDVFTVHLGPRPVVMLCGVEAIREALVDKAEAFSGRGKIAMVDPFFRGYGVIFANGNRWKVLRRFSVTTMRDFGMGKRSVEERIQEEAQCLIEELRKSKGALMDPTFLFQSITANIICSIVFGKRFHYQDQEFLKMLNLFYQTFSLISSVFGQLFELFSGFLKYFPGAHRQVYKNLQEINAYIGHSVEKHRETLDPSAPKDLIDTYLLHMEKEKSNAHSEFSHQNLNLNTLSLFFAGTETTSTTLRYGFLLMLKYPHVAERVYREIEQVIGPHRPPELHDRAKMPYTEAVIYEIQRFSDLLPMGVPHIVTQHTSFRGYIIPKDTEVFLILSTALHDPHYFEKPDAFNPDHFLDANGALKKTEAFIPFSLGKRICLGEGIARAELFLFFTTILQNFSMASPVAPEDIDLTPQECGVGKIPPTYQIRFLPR
# CYP2C8 = target: T3, CYP2C8 (Homo sapiens, UniProt P10632); assay: Time dependent inhibition of CYP2C8 activity in human hepatocytes after 30 mins by liquid chromatography/tandem mass spectroscopy; assay type: ADME, cell-based, Hepatocyte
# T3 sequence (P10632 whole entry): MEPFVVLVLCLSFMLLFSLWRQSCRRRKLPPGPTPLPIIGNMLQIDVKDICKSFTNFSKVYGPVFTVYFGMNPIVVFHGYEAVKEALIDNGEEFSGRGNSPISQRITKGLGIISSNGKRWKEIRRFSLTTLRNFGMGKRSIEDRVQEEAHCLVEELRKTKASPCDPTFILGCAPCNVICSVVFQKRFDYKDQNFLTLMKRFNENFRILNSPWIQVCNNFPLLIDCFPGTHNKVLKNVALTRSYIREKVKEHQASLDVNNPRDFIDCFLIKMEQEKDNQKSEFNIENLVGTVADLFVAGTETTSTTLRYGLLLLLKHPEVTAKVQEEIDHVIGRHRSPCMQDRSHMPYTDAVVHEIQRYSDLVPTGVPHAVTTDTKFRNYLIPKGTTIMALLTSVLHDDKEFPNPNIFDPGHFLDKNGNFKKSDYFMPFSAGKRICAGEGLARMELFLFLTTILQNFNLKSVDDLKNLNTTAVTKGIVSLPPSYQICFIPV
# Sequence of Cytochrome P450 2C9 (P11712 whole entry): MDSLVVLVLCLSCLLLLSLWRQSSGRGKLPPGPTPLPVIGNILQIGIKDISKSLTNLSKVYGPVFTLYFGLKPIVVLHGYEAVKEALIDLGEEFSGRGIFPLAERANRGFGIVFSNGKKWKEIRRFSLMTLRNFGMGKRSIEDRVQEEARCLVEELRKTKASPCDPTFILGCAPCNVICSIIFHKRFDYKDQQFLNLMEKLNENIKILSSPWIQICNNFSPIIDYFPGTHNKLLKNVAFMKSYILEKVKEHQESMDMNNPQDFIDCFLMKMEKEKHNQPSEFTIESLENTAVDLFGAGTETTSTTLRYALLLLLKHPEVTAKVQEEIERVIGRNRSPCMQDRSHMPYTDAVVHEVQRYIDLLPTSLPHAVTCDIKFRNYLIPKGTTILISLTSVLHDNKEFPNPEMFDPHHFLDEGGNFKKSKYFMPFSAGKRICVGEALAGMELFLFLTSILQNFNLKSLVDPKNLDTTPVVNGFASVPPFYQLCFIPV
# Sequence of CYP2C9 (P11712 whole entry): as above
# Sequence of CYP2C19 (P33261 whole entry): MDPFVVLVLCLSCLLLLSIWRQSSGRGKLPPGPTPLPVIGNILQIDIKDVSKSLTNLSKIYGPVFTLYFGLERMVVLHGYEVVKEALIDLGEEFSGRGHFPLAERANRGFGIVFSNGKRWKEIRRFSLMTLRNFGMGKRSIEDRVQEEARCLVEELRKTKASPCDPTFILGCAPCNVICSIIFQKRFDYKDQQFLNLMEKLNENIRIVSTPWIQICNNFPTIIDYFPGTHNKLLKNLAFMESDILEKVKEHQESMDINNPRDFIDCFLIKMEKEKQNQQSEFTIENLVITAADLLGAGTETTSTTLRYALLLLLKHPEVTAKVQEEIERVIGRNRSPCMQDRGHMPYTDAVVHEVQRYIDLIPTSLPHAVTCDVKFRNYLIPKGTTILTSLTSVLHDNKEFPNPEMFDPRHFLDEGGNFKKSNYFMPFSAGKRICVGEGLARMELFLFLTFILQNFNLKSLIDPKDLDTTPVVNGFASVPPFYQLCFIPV
# Sequence of CYP3A4 (Homo sapiens, UniProt P08684) (P08684 whole entry): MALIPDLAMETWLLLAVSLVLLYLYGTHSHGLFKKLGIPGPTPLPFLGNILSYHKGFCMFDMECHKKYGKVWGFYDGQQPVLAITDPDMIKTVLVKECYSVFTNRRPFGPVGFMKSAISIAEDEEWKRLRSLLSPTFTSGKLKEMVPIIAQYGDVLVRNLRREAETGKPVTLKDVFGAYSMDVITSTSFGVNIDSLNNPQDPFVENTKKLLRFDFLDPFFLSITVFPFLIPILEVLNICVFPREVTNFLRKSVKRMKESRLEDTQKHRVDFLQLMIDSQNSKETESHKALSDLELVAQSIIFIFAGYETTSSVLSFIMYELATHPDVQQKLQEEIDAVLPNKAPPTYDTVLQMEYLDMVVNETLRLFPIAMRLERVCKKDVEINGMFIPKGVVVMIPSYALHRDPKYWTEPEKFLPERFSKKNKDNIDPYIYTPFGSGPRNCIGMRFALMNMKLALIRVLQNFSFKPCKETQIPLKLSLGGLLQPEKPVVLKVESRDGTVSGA
# Sequence of Cytochrome P450 3A4 (P08684 whole entry): as above
# Sequence of CYP2D6 (P10635 whole entry): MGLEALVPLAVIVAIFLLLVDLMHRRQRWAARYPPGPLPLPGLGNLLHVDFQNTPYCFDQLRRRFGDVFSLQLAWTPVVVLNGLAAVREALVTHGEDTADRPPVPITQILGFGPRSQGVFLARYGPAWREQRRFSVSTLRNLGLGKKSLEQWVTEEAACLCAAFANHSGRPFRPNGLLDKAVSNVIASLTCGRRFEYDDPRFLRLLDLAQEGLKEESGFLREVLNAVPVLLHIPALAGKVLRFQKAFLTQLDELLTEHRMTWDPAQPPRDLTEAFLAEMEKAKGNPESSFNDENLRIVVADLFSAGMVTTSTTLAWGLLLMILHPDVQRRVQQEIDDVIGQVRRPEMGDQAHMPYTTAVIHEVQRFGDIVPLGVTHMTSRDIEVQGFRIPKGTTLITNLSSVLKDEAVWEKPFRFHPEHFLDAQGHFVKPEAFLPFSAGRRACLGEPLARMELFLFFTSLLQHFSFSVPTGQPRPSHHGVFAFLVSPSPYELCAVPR
# Sequence of CYP2E1 (P05181 whole entry): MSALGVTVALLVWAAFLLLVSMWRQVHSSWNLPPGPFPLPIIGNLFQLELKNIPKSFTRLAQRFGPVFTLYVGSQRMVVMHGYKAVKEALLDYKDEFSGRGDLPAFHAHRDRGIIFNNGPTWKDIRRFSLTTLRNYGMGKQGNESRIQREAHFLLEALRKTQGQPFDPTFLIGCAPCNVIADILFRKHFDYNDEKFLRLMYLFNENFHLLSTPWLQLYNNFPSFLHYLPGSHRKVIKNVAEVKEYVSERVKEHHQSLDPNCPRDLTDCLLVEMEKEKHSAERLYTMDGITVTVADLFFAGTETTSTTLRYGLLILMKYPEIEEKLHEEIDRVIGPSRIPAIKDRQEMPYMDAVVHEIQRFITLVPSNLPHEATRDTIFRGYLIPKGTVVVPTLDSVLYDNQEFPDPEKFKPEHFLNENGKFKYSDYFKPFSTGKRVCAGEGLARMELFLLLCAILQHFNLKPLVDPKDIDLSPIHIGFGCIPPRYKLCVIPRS
structure (smiles),measurement,setting,value
CC/C(=C(\c1ccccc1)c1ccc(OCCN(C)C)cc1)c1ccccc1 [TAMOXIFEN],Activity,Hepatocyte [1],Toxic
same,EC50,Hepatocyte [2],67.6 µM
same,EC50,Hepatocyte [3],34.4 µM
same,EC50,Hepatocyte [4],71.4 µM
same,EC50,Hepatocyte [5],Not Active
CC(C)c1cc2c(c(O)c1O)[C@@]1(C(=O)O)CCCC(C)(C)[C@@H]1CC2 [CARNOSIC ACID],Activity,Hepatocyte [6],Toxic
same,inhibition at 0.5 h,CYP3A4 [7],< 11%
same,inhibition at 0.5 h,CYP2C19,< 11%
same,Activity,Hepatocyte [1],Non-toxic
same,Ki,Cytochrome P450 2C9,9.2 µM
same,inhibition at 0.5 h,CYP2D6,< 11%
same,inhibition at 0.5 h,CYP2E1,< 11%
same,"viability at 24 h, 100 µM",[8],< 10%
same,"fold induction at 48 h, 10 µM",SULT2A1,2.4
same,Activity,Hepatocyte [9],Toxic
same,"fold induction at 48 h, 10 µM",CYP3A4 [10],13.9
same,EC50,Hepatocyte [3],94.8 µM
same,Ki,Cytochrome P450 3A4,4.3 µM
same,inhibition at 0.5 h,CYP1A2,< 11%
same,inhibition at 0.5 h,CYP2C9,< 11%
same,"fold induction at 48 h, 10 µM",CYP2B6 [11],4.5
same,EC50,Hepatocyte [4],95.7 µM
same,inhibition at 0.5 h,CYP2B6 [12],< 11%
same,EC50,Hepatocyte [5],Not Active
same,inhibition at 0.5 h,CYP2C8,< 11%

# — ChEMBL document CHEMBL3526111, “In vitro hepatotoxicity and cytochrome P450 induction and inhibition characteristics of carnosic acid, a dietary supplement with antiadipogenic properties” (Drug Metab Dispos, 2012)
